Calls of active or inactive are those of the source. The calls are words filed in the database; no cut-off is given here.
Legend:
[1] = system: HCC827; assay: Antiproliferative activity against human HCC827 cells harboring EGFR E746-A750 deletion mutant after 72 hrs by MTT assay; format: functional, cell-based; conditions: HCC827, 72 h
[2] = system: NCI-H1975; assay: Antiproliferative activity against human NCI-H1975 cells harboring EGFR L858R/T790M double mutant after 72 hrs by MTT assay; format: functional, cell-based; conditions: NCI-H1975, 72 h
[3] = target: Epidermal growth factor receptor (Homo sapiens, UniProt P00533, L858R); assay: Inhibition of wild type EGFR L858R mutant (unknown origin) using Poly (Glu, Tyr) as substrate after 40 mins by kinase-Glo luminescence assay
[4] = target: Epidermal growth factor receptor (Homo sapiens, UniProt P00533, C797S/L858R/T790M); assay: Inhibition of wild type EGFR L858R/T790M/C797S mutant (unknown origin) using Poly (Glu, Tyr) as substrate after 40 mins by kinase-Glo luminescence assay
[5] = target: Epidermal growth factor receptor (Homo sapiens, UniProt P00533); assay: Inhibition of wild type EGFR (unknown origin) using Poly (Glu, Tyr) as substrate after 40 mins by kinase-Glo luminescence assay
[6] = system: HCC827; assay: Induction of apoptosis in human HCC827 cells harboring EGFR E746-A750 deletion mutant assessed as early apoptotic cells at 3 uM after 24 hrs by Annexin V-FITC/propidium iodide staining based flow cytometry (reference value: 1.34%); format: functional
[7] = system: HCC827; assay: Induction of apoptosis in human HCC827 cells harboring EGFR E746-A750 deletion mutant assessed as late apoptotic cells at 3 uM after 24 hrs by Annexin V-FITC/propidium iodide staining based flow cytometry (reference value: 27.14%); format: functional
[8] = system: A549; assay: Antiproliferative activity against human A549 cells harboring wild type EGFR after 72 hrs by MTT assay; format: cell-based; conditions: A549, 72 h
[9] = target: Epidermal growth factor receptor (Homo sapiens, UniProt P00533, L858R/T790M); assay: Inhibition of wild type EGFR L858R/T790M double mutant (unknown origin) using Poly (Glu, Tyr) as substrate after 40 mins by kinase-Glo luminescence assay
[10] = system: Epidermal growth factor receptor (Homo sapiens), P00533 [UNDEFINED MUTATION]; assay: Inhibition of EGFR E746-A750 deletion mutant in human HCC827 cells assessed as reduction in EGFR phosphorylation at 3.33 uM after 8 hrs by Western blot analysis; format: cell-based
[11] = system: Epidermal growth factor receptor (Homo sapiens), P00533 [UNDEFINED MUTATION]; assay: Inhibition of EGFR E746-A750 deletion mutant in human HCC827 cells assessed as reduction in EGFR phosphorylation after 8 hrs by Western blot analysis; format: cell-based
[12] = system: Epidermal growth factor receptor (Homo sapiens), P00533 [UNDEFINED MUTATION]; assay: Inhibition of EGFR E746-A750 deletion mutant in human HCC827 cells assessed as reduction in ERK phosphorylation at 3.33 uM after 8 hrs by Western blot analysis; format: cell-based

Sequence of Epidermal growth factor receptor (Homo sapiens, UniProt P00533, C797S/L858R/T790M) (P00533 25-1210 T790M/C797S/L858R limits assumed): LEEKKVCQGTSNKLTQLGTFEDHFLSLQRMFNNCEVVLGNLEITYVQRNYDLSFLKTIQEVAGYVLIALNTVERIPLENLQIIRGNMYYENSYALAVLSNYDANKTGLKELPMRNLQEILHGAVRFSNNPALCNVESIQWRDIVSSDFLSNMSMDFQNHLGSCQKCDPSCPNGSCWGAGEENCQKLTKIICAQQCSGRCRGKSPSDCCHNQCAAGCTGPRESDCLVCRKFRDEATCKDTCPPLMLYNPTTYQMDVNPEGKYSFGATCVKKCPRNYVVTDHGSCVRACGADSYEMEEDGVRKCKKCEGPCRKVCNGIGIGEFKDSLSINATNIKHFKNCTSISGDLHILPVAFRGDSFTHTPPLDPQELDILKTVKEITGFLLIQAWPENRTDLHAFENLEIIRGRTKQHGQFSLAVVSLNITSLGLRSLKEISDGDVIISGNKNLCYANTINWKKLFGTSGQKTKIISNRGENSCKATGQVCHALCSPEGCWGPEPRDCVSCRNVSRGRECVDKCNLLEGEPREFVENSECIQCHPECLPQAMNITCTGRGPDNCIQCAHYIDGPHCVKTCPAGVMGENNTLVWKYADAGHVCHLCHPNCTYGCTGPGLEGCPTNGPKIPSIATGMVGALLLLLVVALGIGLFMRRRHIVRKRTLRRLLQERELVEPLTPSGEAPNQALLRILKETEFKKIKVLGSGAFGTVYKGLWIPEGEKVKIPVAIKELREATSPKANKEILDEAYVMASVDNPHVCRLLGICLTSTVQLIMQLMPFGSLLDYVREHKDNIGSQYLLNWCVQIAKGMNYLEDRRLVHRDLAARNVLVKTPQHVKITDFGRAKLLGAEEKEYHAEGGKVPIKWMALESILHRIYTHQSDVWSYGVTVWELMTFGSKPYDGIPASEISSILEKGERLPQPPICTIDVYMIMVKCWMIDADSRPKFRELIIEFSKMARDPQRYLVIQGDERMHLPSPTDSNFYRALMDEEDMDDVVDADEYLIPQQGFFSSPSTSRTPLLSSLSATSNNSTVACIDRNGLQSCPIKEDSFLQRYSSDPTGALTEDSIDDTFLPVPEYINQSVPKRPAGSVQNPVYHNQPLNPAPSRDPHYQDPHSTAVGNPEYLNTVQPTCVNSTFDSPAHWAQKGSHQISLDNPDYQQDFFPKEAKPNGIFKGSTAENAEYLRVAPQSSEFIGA
Sequence of Epidermal growth factor receptor (Homo sapiens, UniProt P00533) (P00533 whole entry): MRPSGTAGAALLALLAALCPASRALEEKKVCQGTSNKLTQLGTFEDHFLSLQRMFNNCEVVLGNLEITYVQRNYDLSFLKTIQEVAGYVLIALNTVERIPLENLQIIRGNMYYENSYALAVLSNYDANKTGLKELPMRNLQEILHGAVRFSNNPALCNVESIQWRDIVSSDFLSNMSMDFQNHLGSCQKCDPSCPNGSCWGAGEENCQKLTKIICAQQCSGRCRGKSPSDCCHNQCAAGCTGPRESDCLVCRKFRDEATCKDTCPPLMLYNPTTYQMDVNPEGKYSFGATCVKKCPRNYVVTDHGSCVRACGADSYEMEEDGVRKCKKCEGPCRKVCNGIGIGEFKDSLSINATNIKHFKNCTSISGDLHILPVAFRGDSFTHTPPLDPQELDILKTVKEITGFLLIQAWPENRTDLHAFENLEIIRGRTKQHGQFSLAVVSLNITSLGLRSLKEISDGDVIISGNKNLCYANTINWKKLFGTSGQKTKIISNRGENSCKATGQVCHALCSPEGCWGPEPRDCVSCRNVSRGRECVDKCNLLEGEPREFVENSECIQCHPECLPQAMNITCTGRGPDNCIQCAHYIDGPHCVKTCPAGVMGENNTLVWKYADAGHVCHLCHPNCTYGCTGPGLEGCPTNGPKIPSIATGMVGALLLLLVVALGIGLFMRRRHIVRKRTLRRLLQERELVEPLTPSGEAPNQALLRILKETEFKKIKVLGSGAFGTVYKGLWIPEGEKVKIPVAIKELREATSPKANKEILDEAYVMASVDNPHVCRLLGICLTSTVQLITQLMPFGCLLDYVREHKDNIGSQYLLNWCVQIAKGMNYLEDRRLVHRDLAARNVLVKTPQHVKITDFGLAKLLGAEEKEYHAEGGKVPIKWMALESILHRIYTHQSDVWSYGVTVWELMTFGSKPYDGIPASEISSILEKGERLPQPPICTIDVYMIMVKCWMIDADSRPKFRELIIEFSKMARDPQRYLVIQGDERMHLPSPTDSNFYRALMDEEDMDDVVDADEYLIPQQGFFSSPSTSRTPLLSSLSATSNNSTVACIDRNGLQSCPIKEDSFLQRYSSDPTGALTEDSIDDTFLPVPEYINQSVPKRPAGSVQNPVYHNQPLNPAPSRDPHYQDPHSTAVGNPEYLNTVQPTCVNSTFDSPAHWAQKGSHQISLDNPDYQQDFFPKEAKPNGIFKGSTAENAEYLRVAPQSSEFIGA
Sequence of Epidermal growth factor receptor (Homo sapiens), P00533 [UNDEFINED MUTATION] (P00533 whole entry, looked up, stated change not applied): as the sequence (P00533 whole entry) above
Sequence of Epidermal growth factor receptor (Homo sapiens, UniProt P00533, L858R) (P00533 25-1210 L858R limits assumed): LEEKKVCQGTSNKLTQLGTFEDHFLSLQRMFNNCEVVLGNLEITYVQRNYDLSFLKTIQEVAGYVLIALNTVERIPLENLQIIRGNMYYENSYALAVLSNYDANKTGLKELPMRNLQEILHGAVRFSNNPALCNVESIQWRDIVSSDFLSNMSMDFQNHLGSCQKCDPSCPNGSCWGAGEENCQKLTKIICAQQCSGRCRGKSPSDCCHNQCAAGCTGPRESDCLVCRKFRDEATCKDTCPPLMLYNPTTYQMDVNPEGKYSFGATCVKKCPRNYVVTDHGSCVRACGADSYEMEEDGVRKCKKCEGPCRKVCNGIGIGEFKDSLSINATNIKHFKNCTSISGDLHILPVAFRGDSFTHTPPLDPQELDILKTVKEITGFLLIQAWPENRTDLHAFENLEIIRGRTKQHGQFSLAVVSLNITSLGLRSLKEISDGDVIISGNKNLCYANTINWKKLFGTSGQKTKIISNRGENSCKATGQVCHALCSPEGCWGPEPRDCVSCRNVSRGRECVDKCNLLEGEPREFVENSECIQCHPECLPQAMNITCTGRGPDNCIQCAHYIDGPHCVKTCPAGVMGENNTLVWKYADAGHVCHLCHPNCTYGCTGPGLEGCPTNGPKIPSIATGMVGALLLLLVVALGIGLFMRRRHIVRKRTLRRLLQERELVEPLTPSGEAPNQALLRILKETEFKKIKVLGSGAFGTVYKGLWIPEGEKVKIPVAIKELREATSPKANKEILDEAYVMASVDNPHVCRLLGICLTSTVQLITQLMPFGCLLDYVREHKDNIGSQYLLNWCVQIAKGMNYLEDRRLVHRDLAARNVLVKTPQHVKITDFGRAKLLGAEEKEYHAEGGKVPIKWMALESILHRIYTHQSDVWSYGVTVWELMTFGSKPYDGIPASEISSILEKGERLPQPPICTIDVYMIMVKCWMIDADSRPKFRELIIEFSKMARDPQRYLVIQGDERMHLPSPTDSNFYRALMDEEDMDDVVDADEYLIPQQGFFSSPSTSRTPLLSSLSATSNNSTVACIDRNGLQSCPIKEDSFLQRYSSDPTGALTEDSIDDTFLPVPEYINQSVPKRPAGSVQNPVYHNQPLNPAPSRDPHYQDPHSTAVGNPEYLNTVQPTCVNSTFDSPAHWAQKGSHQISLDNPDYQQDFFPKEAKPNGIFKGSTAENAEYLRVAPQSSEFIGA

| SMILES | IC50 [1] [nM] | IC50 [2] [nM] | IC50 [4] [nM] | IC50 [8] [nM] | also measured |
| --- | --- | --- | --- | --- | --- |
| CN(C)C1CCN(c2ccc(Nc3cc4c(N5CCOCC5)nc(Oc5cccnc5)nc4cn3)nc2)CC1 | 2510 | > 10000 |  |  |  |
| CN(C)C1CCN(c2ccc(Nc3cc4c(N5CCOCC5)nc(OCC5CCOCC5)nc4cn3)nc2)CC1 | > 10000 | > 10000 |  |  |  |
| CN(C)C1CCN(c2ccc(Nc3cc4c(N5CCOCC5)nc(Nc5cccnc5)nc4cn3)nc2)CC1 | 1820 | 12400 |  |  |  |
| CN1CCN(c2ccc(Nc3cc4c(N(C)C)nc(Nc5ccccc5)nc4cn3)cc2)CC1 | > 10000 |  |  |  |  |
| CN(C)C1CCN(c2ccc(Nc3cc4c(N5CCOCC5)nc(Nc5ccccc5)nc4cn3)nc2)CC1 | 110 | 680 | 54.1 | 550 | IC50 [3]: 3.9 nM; IC50 [5]: 4.6 nM; Activity [6]: 9.32%; Activity [7]: 64.85%; IC50 [9]: 57.7 nM |
| Cn1cc(Nc2cc3c(N4CCOCC4)nc(Nc4ccccc4)nc3cn2)cn1 | > 10000 |  |  |  |  |
| CN(C)C1CCN(c2ccc(Nc3cc4c(N5CCOCC5)nc(NCc5ccccn5)nc4cn3)nc2)CC1 | 7900 | > 10000 |  |  |  |
| CN(C)C1CCN(c2ccc(Nc3cc4c(N5CCOCC5)nc(NCc5ccccc5)nc4cn3)nc2)CC1 | 1640 | 7160 |  |  |  |
| CN(C)C1CCN(c2ccc(Nc3cc4c(N5CCOCC5)nc(Nc5ccccn5)nc4cn3)nc2)CC1 | 1660 | 2650 |  |  |  |
| CN(C)C1CCN(c2ccc(Nc3cc4c(N5CCCC5)nc(Nc5ccccc5)nc4cn3)nc2)CC1 | 650 | 790 | 62.2 | 740 | IC50 [3]: 1.6 nM; IC50 [5]: 5.5 nM; IC50 [9]: 65.6 nM |
| CN(C)CCN(C)c1nc(Nc2ccc(F)cc2)nc2cnc(Nc3ccc(N4CCC(N(C)C)CC4)cn3)cc12 | 450 | 900 | 24.7 | 830 |  |
| CN(CCCO)c1nc(Nc2ccc(F)cc2)nc2cnc(Nc3ccc(N4CCC(N(C)C)CC4)cn3)cc12 | 80 | 300 | 51.9 | 420 |  |
| CN(C)C1CCN(c2ccc(Nc3cc4c(N5CCOCC5)nc(Nc5ccc(F)cc5)nc4cn3)nc2)CC1 | 310 | 1670 | 28 | 530 | IC50 [3]: 2.5 nM; IC50 [5]: 1.5 nM; IC50 [9]: 28.8 nM |
| CN1CCN(c2ccc(Nc3cc4c(N5CCCC5)nc(Nc5ccc(F)c(Cl)c5)nc4cn3)nc2)CC1 | 1390 | 520 |  |  |  |
| CN(C)C1CCN(c2ccc(Nc3cc4c(N5CCOCC5)nc(OC5CCOCC5)nc4cn3)nc2)CC1 | 6910 | > 10000 |  |  |  |
| CN(C)CCN(C)c1ccc(Nc2cc3c(N4CCCC4)nc(Nc4ccccc4)nc3cn2)nc1 | 1890 | 820 |  | 1300 |  |
| CN(CCO)c1nc(Nc2ccccc2)nc2cnc(Nc3ccc(N4CCC(N(C)C)CC4)cn3)cc12 | 240 | 590 | 51.3 | 690 |  |
| C=CC(=O)Nc1cc(Nc2nccc(-c3cn(C)c4ccccc34)n2)c(OC)cc1N(C)CCN(C)C [OSIMERTINIB] | 27 |  |  |  | Activity [6]: 8.28%; Activity [7]: 68.1% |

| SMILES | IC50 [1] [nM] | IC50 [2] [nM] | IC50 [4] [nM] | IC50 [8] [nM] | also measured |
| --- | --- | --- | --- | --- | --- |
| CN(C)C1CCN(c2ccc(Nc3cc4c(N5CCOCC5)nc(Nc5cccc(C(F)(F)F)c5)nc4cn3)nc2)CC1 | 890 | 680 |  | 740 |  |
| CN(C)C1CCN(c2ccc(Nc3cc4c(N5CCOCC5)nc(NCc5cccnc5)nc4cn3)nc2)CC1 | > 10000 |  |  |  |  |
| CN1CCN(c2ccc(Nc3cc4c(N5CCCC5)nc(Nc5ccccc5)nc4cn3)nc2)CC1 | 1350 | 2470 |  | 8700 | IC50 [3]: 2.3 nM; IC50 [5]: 4.4 nM; IC50 [9]: 85 nM |
| CN1CCN(c2ccc(Nc3cc4c(N5CCCC5)nc(Nc5cnn(C)c5)nc4cn3)nc2)CC1 | 3660 | 2170 |  |  |  |
| CN1CCN(c2ccc(Nc3cc4c(N5CCOCC5)nc(Nc5ccccc5)nc4cn3)nc2)CC1 | 200 | 1280 |  | 1020 |  |
| CN1CCN(c2ccc(Nc3cc4c(N5CCOCC5)nc(Nc5cccnc5)nc4cn3)nc2)CC1 | 5430 |  |  |  |  |
| CN(C)C1CCN(c2ccc(Nc3cc4c(N5CCOCC5)nc(Nc5ccc(F)cc5F)nc4cn3)nc2)CC1 | 350 | 980 | 53.6 | 1140 | IC50 [3]: 2.1 nM; IC50 [5]: 0.9 nM; IC50 [9]: 30 nM |
| CN1CCN(c2ccc(Nc3cc4c(N5CCCC5)nc(Nc5ccccc5)nc4cn3)cc2)CC1 | > 10000 |  |  |  |  |
| CN(C)C1CCN(c2ccc(Nc3cc4c(N5CCC(CO)CC5)nc(Nc5ccc(F)cc5)nc4cn3)nc2)CC1 | 44 | 400 | 7.2 | 1060 | IC50 [3]: 1.1 nM; inhibition [10]: inactive; inhibition [11]: Dose-dependent effect; IC50 [5]: 10.4 nM; Activity [6]: 6.21%; Activity [7]: 74.26%; inhibition [12]: inactive; IC50 [9]: 34 nM |
| CN1CCN(c2nc(Nc3ccc(F)cc3)nc3cnc(Nc4ccc(N5CCC(N(C)C)CC5)cn4)cc23)CC1 | 130 | 550 | 34.8 | 600 |  |
| CN(C)C1CCN(c2ccc(Nc3cc4c(N5CCOCC5)nc(Nc5ccc(F)c(Cl)c5)nc4cn3)nc2)CC1 | 390 | 1160 |  | 970 |  |
| CN1CCN(c2ccc(Nc3cc4c(N5CCCC5)nc(Nc5cccc(F)c5)nc4cn3)nc2)CC1 | 1010 | > 10000 |  | > 10000 |  |
| CN(C)C1CCN(c2ccc(Nc3cc4c(N5CCC(CO)CC5)nc(Nc5ccccc5)nc4cn3)nc2)CC1 | 64 | 420 | 82.9 | 690 | IC50 [3]: 3.2 nM; IC50 [5]: 2.1 nM; IC50 [9]: 44.1 nM |
| CN(C)C1CCN(c2ccc(Nc3cc4c(N5CCCCC5)nc(Nc5ccccc5)nc4cn3)nc2)CC1 | 240 | 1020 | 15 | 540 | IC50 [3]: 4.9 nM; IC50 [5]: 0.9 nM; IC50 [9]: 23.2 nM |
| CN1CCN(c2ccc(Nc3cc4c(N5CCCCC5)nc(Nc5ccccc5)nc4cn3)nc2)CC1 | 270 | 2050 | 23 | 1330 | IC50 [3]: 1.1 nM; IC50 [5]: 1.1 nM; IC50 [9]: 45 nM |
| CN1CCN(c2ccc(Nc3cc4c(N5CCOCC5)nc(Nc5cccc(C(F)(F)F)c5)nc4cn3)nc2)CC1 | > 10000 |  |  |  |  |
| CN1CCN(c2ccc(Nc3cc4c(N(C)C)nc(Nc5ccccc5)nc4cn3)nc2)CC1 | 1160 | 7350 |  | > 10000 |  |

From ChEMBL document CHEMBL4196024, “Discovery of 2,4,6-trisubstitued pyrido[3,4-d]pyrimidine derivatives as new EGFR-TKIs” (Eur J Med Chem, 2018)
